# Laboratory results: US5753691A, “Agents for inhibiting the production of IL-1β and the release of TNFα” (Nisshin Flour Milling Co., Ltd., priority 1994, dated 1998)
# Legend:
# [1] = tested on: IL-1β; assay: Inhibition of IL-1β production in THP-1 cells stimulated with PMA and polyinosic acid (enzyme immunoassay); format: cell-based; details: Homo sapiens, 3×10^6 cells/ml, compound 1 h, then PMA 2 μg/ml and polyinosic acid 200 μg/ml, 24 h, supernatant
# Method: The pyrrolidinone derivatives of the present invention were evaluated for the activity to inhibit the production of IL-1β, in accordance with the following method.
# (§1) Then, 12-o-tetradecanoylphorbol-13-acetate (PMA) and polyinosic acid were added to each well so as to provide final concentrations of 2 μg/ml and 200 μg/ml, respectively. […] After incubation, a supernatant was recovered from each well by means of Pipetteman available from Gilson Co., Ltd. Then, an amount of the IL-1β in the supernatant was assayed by means of the enzyme immunoassay kit available from Cayman Chemical Co., Ltd.
# (§2) The results are summarized below, expressed in terms of IC50 values in μM unit, wherein the amount of IL-1β produced at the time of no addition of the pyrrolidinone derivative is defined as 100 and the concentration of each test compound of the present invention to inhibit 50% the IL-1β production is defined as IC50.
# [2] = tested on: TNFα; assay: Inhibition of TNFα release from THP-1 cells stimulated with PMA and polyinosic acid (human TNFα ELISA); format: cell-based; details: 3×10^6 cells/ml, compound 1 h, then PMA 2 μg/ml and polyinosic acid 200 μg/ml, 24 h, supernatant
# Method: The pyrrolidinone derivatives of the present invention were evaluated for the activity to inhibit the release of TNFα, in accordance with the following method.
# as §1, with “PMA” for “12-o-tetradecanoylphorbol-13-acetate (PMA)”, “An” for “Then, an”, “TNFα” for “the IL-1β”, “human TNFα ELISA” for “enzyme immunoassay”, “Genzyme” for “Cayman Chemical”
# as §2, with “TNFα released” for “IL-1β produced”, “derivatives” for “derivative”, “TNFα release” for “IL-1β production”
# [3] = tested on: THP-1 cells
# Method: The suspension of THP-1 cell was subcultured at 37° C. under the atmosphere of 95% oxygen and 5% carbon dioxide. A portion of the subcultured suspension was centrifuged at 1200 rpm at room temperature for 3 minutes to recover the subcultured THP-1 cells.
# The resuspension of the cell was dispensed in 1 ml portions to wells of a 24-well plate for cell culture. […] The plate was incubated at 37° C. under the atmosphere of 95% oxygen and 5% carbon dioxide for 24 hours. After incubation, 100 μl of Alamar Blue (available from Biosource Co., Ltd.) was added to each well and then incubation was further continued at 37° C. under the atmosphere of 95% oxygen and 5% carbon dioxide for 3 hours.
# After incubation, a supernatant was recovered by means of the Pipetteman available from Gilson Co., Ltd. and determined for a difference in absorbances at 570 nm and 600 nm. The difference in absorbances at 570 nm and 600 nm for the test solution containing no pyrrolidinone derivative was used as a standard.
Compound,IC50 [1] [µM],IC50 [2] [µM],cytotoxicity [3]
O=C(C=Cc1ccccc1)N1CCCC1=O [Compound 1],26,2.8,
COc1ccccc1C=CC(=O)N1CCCC1=O [Compound 2],86,,
COc1cccc(C=CC(=O)N2CCCC2=O)c1 [Compound 3],73,,
COc1ccc(C=CC(=O)N2CCCC2=O)cc1 [Compound 4],73,,
COc1ccc(C=CC(=O)N2CCCC2=O)cc1OC [Compound 5],69,16,
O=C(C=Cc1ccc([N+](=O)[O-])cc1)N1CCCC1=O [Compound 9],13,3,
O=C(C=Cc1ccc([N+](=O)[O-])cc1[N+](=O)[O-])N1CCCC1=O [Compound 10],,,no cytotoxicity was found
O=C(C=Cc1ccccn1)N1CCCC1=O [Compound 12],1.4,4.6,
O=C(C=Cc1cccnc1)N1CCCC1=O [Compound 13],48,30,
O=C(C=Cc1ccncc1)N1CCCC1=O [Compound 14],42,,
